Among the data in PMC4490130 (Cancer research, 2015) are IC50 values, retold here.

The target of the experiment is Pim-1 (Homo sapiens, UniProt P11309). In words: X-ray crystal structure. Format: biochemical.

For the molecule `O=C/C=C/c1ccccc1O` [2′-HCA], the IC50 is about 3 µM.

In general, IC50 refers to the midpoint of a concentration-inhibition curve.
